Laboratory results from ChEMBL document CHEMBL2086360, “α-Glucosidase inhibitory hydrolyzable tannins from Eugenia jambolana seeds” (J Nat Prod, 2012).
pIC50: −log10 of the molar value.

Assay: Inhibition of yeast alpha-glucosidase using p-nitrophenyl-alpha-D-glucopyranoside as substrate compound pre-incubated for 10 mins before substrate addition measured after 5 mins by microplate reader
Parameters: species or system Saccharomyces cerevisiae

Row | Structure (SMILES) | pIC50
1 | O=C(O[C@H]1[C@@H]2OC(=O)c3cc(O)c(O)c(O)c3-c3c(cc(O)c(O)c3O)C(=O)OC[C@H]2OC(O)[C@@H]1OC(=O)c1cc(O)c(O)c(O)c1Oc1cc2c(=O)oc3c(O)c(O)cc4oc(=O)c(c1O)c2c43)c1cc(O)c(O)c(O)c1 (stereo not given in full) [CORNUSSIN B] | 4.91
2 | O=C(O[C@H]1[C@H](O)[C@@H](CO)OC(O)[C@@H]1OC(=O)c1cc(O)c(O)c(O)c1Oc1cc2c(=O)oc3c(O)c(O)cc4c(=O)oc(c1O)c2c34)c1cc(O)c(O)c(O)c1 (stereo not given in full) [OENOTHEIN C] | 4.12
3 | C[C@H]1O[C@H](O[C@H]2[C@H](O)[C@@H](O)[C@@H](O[C@H]3[C@H](O)[C@@H](O)C(O)O[C@@H]3CO)O[C@@H]2CO)[C@H](O)[C@@H](O)[C@@H]1N[C@H]1C=C(CO)[C@@H](O)[C@H](O)[C@H]1O (stereo not given in full) [ACARBOSE] | 3.68
4 | COc1cc2oc(-c3ccc(O)cc3)cc(=O)c2c(O)c1[C@@H]1O[C@H](CO)[C@@H](O)[C@H](O)[C@H]1O [SWERTISIN] | 3.83
5 | O=C(O[C@H]1[C@H](O)[C@@H](CO)OC(O)[C@@H]1OC(=O)c1cc(O)c(O)c(O)c1Oc1c(O)cc2c(=O)oc3c(O)c(O)cc4c(=O)oc1c2c34)c1cc(O)c(O)c(O)c1 (mixture of isomers) | 5.09
